Laboratory results as given in PMC10142861, “Synthesis, Antiproliferative Effect and In Silico LogP Prediction of BIM-23052 Analogs Containing Tyr Instead of Phe” (Pharmaceutics, 2023).
Values joined by “and” are separate entries in the source; they are usually repeats but may differ in a detail not shown here. Equal entries are not always repeated. Where two headings read alike, the source gives them in different places. Square brackets hold non-standard residues; d marks the D form. Peptide text beside a SMILES is read from it.

How the values were obtained:
[1] = test system: MDA-MB-231 breast cancer cells; details: for IC50: 72 h
Text: (§1) The breast cancer cells MDA-MB-231 (ATCC: HTB-26) and MCF-7 (ATCC: HTB-22) were used to determine antiproliferative activity under in vitro conditions. The breast epithelial cells (MCF-10A, ATCC: CRL-10317) and mouse embryonic fibroblasts (BALB/c 3T3 clone A31, ATCC: CCL-163) were used as control. Cell cultures were purchased from American Type Cultures Collection (ATCC, Manassas, Virginia, USA). In cell culture, growth medium DMEM-high glucose, 10% (v/v) FBS and antibiotics (Sigma-Aldrich, Schnelldorf, Germany) were used. Cells were incubated at 37 °C, 5% CO2 and 95% humidity. Cells were grown in plastic flasks with a surface of 75 cm^2 (Deltalab S.L., Barcelona, Spain).
(§2) Cell viability was determined by a colorimetric MTT-dye reduction assay. The method is based on an enzyme reaction leading to the reduction of […] (MTT) to formazan crystals. The concentration of formazan, which is directly proportional to cell viability, was determined by a spectrophotometric method. Cells (MCF-7, MDA-MB-231 and MCF-10A) were seeded at a 1 × 10^3 cells/100 µL/well in 96-well microplates. The plates were placed in a thermostat under standard conditions for 24 h. Cells were then treated with the peptide analogs at concentrations ranging from 7.5 to 2000 μm. The cells were then incubated in a thermostat for 72 h. The formazan concentration was measured spectrophotometrically by a microplate reader at a wavelength of 540 nm. The antiproliferative potential of BIM-23052 analogs was presented as IC50 values, calculated using GraphPad Prizm Software (San Diego, CA, USA).
(§3) The antiproliferative activity of BIM-23052 analogs was studied by MTT assay. The normal and tumor cell cultures were incubated with the peptide analogs with a concentration range from 7.5 to 2000 μm for 72 h. The antiproliferative activity was determined (Figure 3 and Table 3).
(§4) Figure 3 Dose–response curves for antiproliferative activity of BIM-23052 analogs determined in MCF-10A (ATCC® CRL-10317^TM), MCF-7 (ATCC® HTB-22^TM) and MDA-MB-231 (ATCC® HTB-26^TM) cell lines. Mean values are presented ± SD from three independent experiments, n = 6.

[2] = test system: MCF-10A breast epithelial cells; details: 72 h
Text: as §1, §2, §3, §4

[3] = test system: MCF-7 breast cancer cells; details: for IC50: 72 h
Text: as §1, §2, §3, §4

[4] = BALB/c 3T3 Neutral Red Uptake cytotoxicity assay (safety test); details: mouse
Text: as §1
A safety test was performed on the method BALB/c 3T3 Neutral Red Uptake cytotoxicity Assay. The data generated from the in vitro cytotoxicity assay can be used to determine the safety level of the investigated substances and can predict the starting doses for in vivo toxicity assays. The cells (BALB/c 3T3, clone A31) were seeded at 1 × 10^4 cells/100 μL/well in 96-well flat-bottomed microplates. The plates were placed in a thermostat at 37 °C, 5% CO2 and 95% humidity for 24 h. Peptides were pre-dissolved in DMSO and then culture medium (DMEM) was added. The cells were treated with the BIM-23052 analogs at concentrations from […]. The treated cell culture was incubated for 24 h in a thermostat under standard conditions. The microplates were then washed twice with PBS, and Neutral Red Desorb (1% acetic acid/50% ethanol/49% water) was added. Absorbance was measured by a microplate reader at a wavelength of 540 nm.
The safety test of BIM-23052 analogues was carried out by Neutral Red Uptake cytotoxicity Assay. Cell cultures were incubated with the tested peptide analogs for 24 h.
Mean values are presented ± SD from three independent experiments, n = 6.

[5] = SI = IC50 MCF-10A/IC50 MDA-MB-231
[6] = read-out: Mean IC50 ± SD, Antiproliferative Effect, MDA-MB-231, MTT, 7.5 to 2000 μm, absorbance 540 nm, mean ± SD, three independent experiments, n = 6
[7] = read-out: Mean IC50 ± SD, Antiproliferative Effect, MCF-10A, MTT, 7.5 to 2000 μm, absorbance 540 nm, mean ± SD, three independent experiments, n = 6
[8] = read-out: Mean IC50 ± SD, Antiproliferative Effect, MCF-7, MTT, 7.5 to 2000 μm, absorbance 540 nm, mean ± SD, three independent experiments, n = 6
[9] = BALB/c 3T3 clone A31 mouse embryonic fibroblasts

SMILES	IC50 at 24 h [4]	IC50 [1]	IC50 [3]	Selectivity index SI, MDA-MB-231 [1, 5]	IC50 [1, 6]	IC50 [2, 7]	Selectivity index SI, MCF-7 ([3]; SI = IC50 MCF-10A/IC50 MCF-7)	IC50 [3, 8]	Selectivity index SI, MDA-MB-231 ([1]; 2 h)	IC50 [2]	Selectivity index SI, MCF-7 ([3]; 2 h)	IC50 at 24 h [4, 9]
C[C@@H](O)[C@H](NC(=O)[C@H](Cc1ccccc1)NC(=O)[C@@H](NC(=O)[C@H](CCCCN)NC(=O)[C@@H](Cc1c[nH]c2ccccc12)NC(=O)[C@H](Cc1ccc(O)cc1)NC(=O)[C@H](Cc1ccc(O)cc1)NC(=O)[C@@H](N)Cc1ccc(O)cc1)[C@@H](C)O)C(N)=O [D6, L-Tyr^1-Tyr^2-Tyr^3-D-Trp-Lys-Thr-Phe-Thr-NH2] (H-YYY[dW]KTFT-NH2)	> 1000 µM and 1320 µM			0.66	291 ± 12.7 µM	191 ± 6.8 µM	0.53	359 ± 16.1 µM				
C[C@@H](O)[C@H](NC(=O)[C@H](Cc1ccccc1)NC(=O)[C@@H](NC(=O)[C@H](CCCCN)NC(=O)[C@@H](Cc1c[nH]c2ccccc12)NC(=O)[C@H](Cc1ccccc1)NC(=O)[C@H](Cc1ccccc1)NC(=O)[C@H](N)Cc1ccc(O)cc1)[C@@H](C)O)C(N)=O [D11, D-Tyr^1-Phe-Phe-D-Trp-Lys-Thr-Phe-Thr-NH2] (H-[dY]FF[dW]KTFT-NH2)	> 1000 µM and 1630 µM			0.50	1720 ± 58.6 µM	864 ± 52.3 µM	0.99	873 ± 26.6 µM				
C[C@@H](O)[C@H](NC(=O)[C@H](Cc1ccc(O)cc1)NC(=O)[C@@H](NC(=O)[C@H](CCCCN)NC(=O)[C@@H](Cc1c[nH]c2ccccc12)NC(=O)[C@H](Cc1ccc(O)cc1)NC(=O)[C@H](Cc1ccc(O)cc1)NC(=O)[C@@H](N)Cc1ccc(O)cc1)[C@@H](C)O)C(N)=O [D9, L-Tyr^1-Tyr^2-Tyr^3-D-Trp-Lys-Thr-Tyr^7-Thr-NH2] (H-YYY[dW]KTYT-NH2)	> 1000 µM and 1430 µM			0.28	1410 ± 19.1 µM	395 ± 15.3 µM	0.83	477 ± 31.4 µM				
C[C@@H](O)[C@H](NC(=O)[C@H](Cc1ccccc1)NC(=O)[C@@H](NC(=O)[C@H](CCCCN)NC(=O)[C@@H](Cc1c[nH]c2ccccc12)NC(=O)[C@H](Cc1ccccc1)NC(=O)[C@H](Cc1ccccc1)NC(=O)[C@H](N)Cc1ccccc1)[C@@H](C)O)C(N)=O [BIM-23052, D-Phe-Phe-Phe-D-Trp-Lys-Thr-Phe-Thr-NH2] (H-[dF]FF[dW]KTFT-NH2)	483 ± 32.1 µM	335 ± 15.4 µM	120 ± 6.53 µM						0.61	204 ± 6.32 µM	1.7	
C[C@@H](O)[C@H](NC(=O)[C@H](Cc1ccc(O)cc1)NC(=O)[C@@H](NC(=O)[C@H](CCCCN)NC(=O)[C@@H](Cc1c[nH]c2ccccc12)NC(=O)[C@H](Cc1ccccc1)NC(=O)[C@H](Cc1ccc(O)cc1)NC(=O)[C@@H](N)Cc1ccc(O)cc1)[C@@H](C)O)C(N)=O [D7, L-Tyr^1-Tyr^2-Phe-D-Trp-Lys-Thr-Tyr^7-Thr-NH2] (H-YYF[dW]KTYT-NH2)	737 ± 20 µM			0.55	782 ± 19 µM	433 ± 23.2 µM	1.07	403 ± 24.9 µM				
N.N.[Cl][Pt][Cl] [Cisplatin, reference compound]					6.94 ± 0.47 µM	64.3 ± 2.11 µM		43.1 ± 3.16 µM				

More lines, main results first:

IC50 at 24 h [4]	IC50 [1]	IC50 [3]	SMILES	Selectivity index SI, MDA-MB-231 [1, 5]	IC50 [1, 6]	IC50 [2, 7]	Selectivity index SI, MCF-7 ([3]; SI = IC50 MCF-10A/IC50 MCF-7)	IC50 [3, 8]	Selectivity index SI, MDA-MB-231 ([1]; 2 h)	IC50 [2]	Selectivity index SI, MCF-7 ([3]; 2 h)	IC50 at 24 h [4, 9]
1400 ± 52.3 µM	1400 ± 20 µM	717 ± 20.8 µM	C[C@@H](O)[C@H](NC(=O)[C@H](Cc1ccccc1)NC(=O)[C@@H](NC(=O)[C@H](CCCCN)NC(=O)[C@@H](Cc1c[nH]c2ccccc12)NC(=O)[C@H](Cc1ccc(O)cc1)NC(=O)[C@H](Cc1ccc(O)cc1)NC(=O)[C@H](N)Cc1ccccc1)[C@@H](C)O)C(N)=O [D101, D-Phe-Tyr^2-Tyr^3-D-Trp-Lys-Thr-Phe-Thr-NH2] (H-[dF]YY[dW]KTFT-NH2)						0.43	604 ± 24.7 µM	0.84	> 1000 µM
483 ± 33.9 µM	241 ± 13.4 µM	235 ± 14.3 µM	C[C@@H](O)[C@H](NC(=O)[C@H](Cc1ccc(O)cc1)NC(=O)[C@@H](NC(=O)[C@H](CCCCN)NC(=O)[C@@H](Cc1c[nH]c2ccccc12)NC(=O)[C@H](Cc1ccccc1)NC(=O)[C@H](Cc1ccccc1)NC(=O)[C@H](N)Cc1ccccc1)[C@@H](C)O)C(N)=O [DD8, D-Phe-Phe-Phe-D-Trp-Lys-Thr-Tyr^7-Thr-NH2] (H-[dF]FF[dW]KTYT-NH2)						0.67	161 ± 7.97 µM	0.69	
1200 ± 100 µM	798 ± 24.4 µM	426 ± 23.9 µM	C[C@@H](O)[C@H](NC(=O)[C@H](Cc1ccc(O)cc1)NC(=O)[C@@H](NC(=O)[C@H](CCCCN)NC(=O)[C@@H](Cc1c[nH]c2ccccc12)NC(=O)[C@H](Cc1ccc(O)cc1)NC(=O)[C@H](Cc1ccc(O)cc1)NC(=O)[C@H](N)Cc1ccccc1)[C@@H](C)O)C(N)=O [D61, D-Phe-Tyr^2-Tyr^3-D-Trp-Lys-Thr-Tyr^7-Thr-NH2] (H-[dF]YY[dW]KTYT-NH2)						0.69	555 ± 21.3 µM	1.3	> 1000 µM
975 ± 81.7 µM	849 ± 21.2 µM	527 ± 54.2 µM	C[C@@H](O)[C@H](NC(=O)[C@H](Cc1ccc(O)cc1)NC(=O)[C@@H](NC(=O)[C@H](CCCCN)NC(=O)[C@@H](Cc1c[nH]c2ccccc12)NC(=O)[C@H](Cc1ccc(O)cc1)NC(=O)[C@H](Cc1ccc(O)cc1)NC(=O)[C@H](N)Cc1ccc(O)cc1)[C@@H](C)O)C(N)=O [D91, D-Tyr^1-Tyr^2-Tyr^3-D-Trp-Lys-Thr-Tyr^7-Thr-NH2] (H-[dY]YY[dW]KTYT-NH2)						0.64	540 ± 27.2 µM	1.02	
